Source: US12319672B2, “Alpha-D-galactopyranoside derivatives” (Idorsia Pharmaceuticals Ltd, priority 2019, dated 2025)

Experiments:
[1] = target: human Gal-3 (hGal-3) (Homo sapiens (Human), UniProt P17931); assay: Competitive binding assay: binding of biotinylated hGal-3 to microplate-adsorbed asialofetuin (ASF); settings: Activity on hGal-3; mean values of several measurements
Summary of the method: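 For hGal-1, a variant with all six cysteines replaced by serines is preferred. Either galectin, biotinylated at 300-1000 ng/mL, competes with compound for microplate-bound ASF over 3 h at 4° C; peroxidase/ABTS detection gives IC50, averaged.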

[2] = target: human Gal-1 (hGal-1); assay: Competitive binding assay: binding of biotinylated hGal-1 to microplate-adsorbed asialofetuin (ASF); settings: Activities on hGal-1; mean values of several measurements
Summary of the method: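 Spectrophotometric readout (streptavidin-peroxidase, ABTS) of biotinylated galectin retained on ASF-coated wells. Biotinylated hGal-1 or hGal-3, 300-1000 ng/mL, co-incubated with test compound 3 h at 4° C, then washed. Mean IC50 from repeat runs.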

Sequence of human Gal-3 (hGal-3) (P17931 whole entry): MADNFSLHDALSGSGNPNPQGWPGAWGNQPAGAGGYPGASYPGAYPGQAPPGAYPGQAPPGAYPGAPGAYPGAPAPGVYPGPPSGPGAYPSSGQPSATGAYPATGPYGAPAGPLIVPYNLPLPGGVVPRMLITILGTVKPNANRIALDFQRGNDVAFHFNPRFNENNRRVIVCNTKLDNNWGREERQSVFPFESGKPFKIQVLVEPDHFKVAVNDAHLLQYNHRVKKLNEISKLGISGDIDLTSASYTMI
Sequence of human Gal-1 (hGal-1) (P09382 2-135 limits assumed): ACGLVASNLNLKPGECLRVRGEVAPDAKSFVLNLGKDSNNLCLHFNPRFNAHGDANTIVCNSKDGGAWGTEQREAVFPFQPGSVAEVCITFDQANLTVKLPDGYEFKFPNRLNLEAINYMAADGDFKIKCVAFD

Row | SMILES | IC50 [1] [µM] | IC50 [2] [µM]
1 | CO[C@@H]1[C@@H](n2cc(-c3cc(F)c(F)c(F)c3)nn2)[C@@H](O)[C@@H](CO)O[C@@H]1C[C@@H]1CC(c2cc[nH]c(=O)c2)=NO1 [Example 2.07a, 4-((S)-5-(((2R,3R,4S,5R,6R)-5-hydroxy-6-(hydroxymethyl)-3-methoxy-4-(4-(3,4,5-trifluorophenyl)-1H-1,2,3-triazol-1-yl)tetrahydro-2H-pyran-2-yl)methyl)-4,5-dihydroisoxazol-3-yl)pyridin-2(1H)-one] | 0.26 | 0.31
2 | CO[C@@H]1[C@@H](n2cc(-c3cc(F)c(F)c(F)c3)nn2)[C@@H](O)[C@@H](CO)O[C@@H]1C[C@H]1CC(c2cc[nH]c(=O)c2)=NO1 [Example 2.07b, 4-((R)-5-(((2R,3R,4S,5R,6R)-5-hydroxy-6-(hydroxymethyl)-3-methoxy-4-(4-(3,4,5-trifluorophenyl)-1H-1,2,3-triazol-1-yl)tetrahydro-2H-pyran-2-yl)methyl)-4,5-dihydroisoxazol-3-yl)pyridin-2(1H)-one] | 1.7 | 11.7
3 | CCC(=O)O[C@@H]1[C@@H](n2cc(-c3cc(F)c(F)c(F)c3)nn2)[C@@H](O)[C@@H](CO)O[C@@H]1Cc1cc(C2CCN(C(=O)OC(C)(C)C)CC2)on1 [Example 2.15, tert-butyl 4-(3-(((2R,3R,4S,5R,6R)-5-hydroxy-6-(hydroxymethyl)-3-(propionyloxy)-4-(4-(3,4,5-trifluorophenyl)-1H-1,2,3-triazol-1-yl)tetrahydro-2H-pyran-2-yl)methyl)isoxazol-5-yl)piperidine-1-carboxylate] | 0.095 | 2.14
4 | CCO[C@@H]1[C@@H](n2cc(-c3cc(F)c(F)c(F)c3)nn2)[C@@H](O)[C@@H](CO)O[C@@H]1Cc1cc(C2CCN(C(=O)OC(C)(C)C)CC2)on1 [Example 2.17, tert-butyl 4-(3-(((2R,3R,4S,5R,6R)-3-ethoxy-5-hydroxy-6-(hydroxymethyl)-4-(4-(3,4,5-trifluorophenyl)-1H-1,2,3-triazol-1-yl)tetrahydro-2H-pyran-2-yl)methyl)isoxazol-5-yl)piperidine-1-carboxylate] | 0.13 | 0.78
5 | CCCO[C@@H]1[C@@H](n2cc(-c3cc(F)c(F)c(F)c3)nn2)[C@@H](O)[C@@H](CO)O[C@@H]1Cc1cc(C2CCN(C(=O)OC(C)(C)C)CC2)on1 [Example 2.19, tert-butyl 4-(3-(((2R,3R,4S,5R,6R)-5-hydroxy-6-(hydroxymethyl)-3-propoxy-4-(4-(3,4,5-trifluorophenyl)-1H-1,2,3-triazol-1-yl)tetrahydro-2H-pyran-2-yl)methyl)isoxazol-5-yl)piperidine-1-carboxylate] | 0.17 | 1.05
6 | CCCCO[C@@H]1[C@@H](n2cc(-c3cc(F)c(F)c(F)c3)nn2)[C@@H](O)[C@@H](CO)O[C@@H]1Cc1cc(C2CCN(C(=O)OC(C)(C)C)CC2)on1 [Example 2.20, tert-butyl 4-(3-(((2R,3R,4S,5R,6R)-3-butoxy-5-hydroxy-6-(hydroxymethyl)-4-(4-(3,4,5-trifluorophenyl)-1H-1,2,3-triazol-1-yl)tetrahydro-2H-pyran-2-yl)methyl)isoxazol-5-yl)piperidine-1-carboxylate] | 0.39 | 2.03
7 | CC(C)(C)OC(=O)N1CCC(c2cc(C[C@H]3O[C@H](CO)[C@H](O)[C@H](n4cc(-c5cc(F)c(F)c(F)c5)nn4)[C@H]3OCC(=O)O)no2)CC1 [Example 2.21, 2-(((2R,3R,4S,5R,6R)-2-((5-(1-(tert-butoxycarbonyl)piperidin-4-yl)isoxazol-3-yl)methyl)-5-hydroxy-6-(hydroxymethyl)-4-(4-(3,4,5-trifluorophenyl)-1H-1,2,3-triazol-1-yl)tetrahydro-2H-pyran-3-yl)oxy)acetic acid] | 0.022 | 0.69
8 | CC(C)C(=O)O[C@@H]1[C@@H](n2cc(-c3cc(F)c(F)c(F)c3)nn2)[C@@H](O)[C@@H](CO)O[C@@H]1Cc1cc(C2CCN(C(=O)OC(C)(C)C)CC2)on1 [Example 2.22, tert-butyl 4-(3-(((2R,3R,4S,5R,6R)-5-hydroxy-6-(hydroxymethyl)-3-(isobutyryloxy)-4-(4-(3,4,5-trifluorophenyl)-1H-1,2,3-triazol-1-yl)tetrahydro-2H-pyran-2-yl)methyl)isoxazol-5-yl)piperidine-1-carboxylate] | 0.2 | 27.3
9 | CC(C)O[C@@H]1[C@@H](n2cc(-c3cc(F)c(F)c(F)c3)nn2)[C@@H](O)[C@@H](CO)O[C@@H]1Cc1cc(C2CCN(C(=O)OC(C)(C)C)CC2)on1 [Example 2.23, tert-butyl 4-(3-(((2R,3R,4S,5R,6R)-5-hydroxy-6-(hydroxymethyl)-3-isopropoxy-4-(4-(3,4,5-trifluorophenyl)-1H-1,2,3-triazol-1-yl)tetrahydro-2H-pyran-2-yl)methyl)isoxazol-5-yl)piperidine-1-carboxylate] | 0.22 | 2.05
10 | OC[C@H]1O[C@H](Cc2cc(C3CCNCC3)on2)[C@H](OCC(F)F)[C@@H](n2cc(-c3cc(F)c(F)c(F)c3)nn2)[C@H]1O [Example 2.26, (2R,3R,4S,5R,6R)-5-(2,2-difluoroethoxy)-2-(hydroxymethyl)-6-((5-(piperidin-4-yl)isoxazol-3-yl)methyl)-4-(4-(3,4,5-trifluorophenyl)-1H-1,2,3-triazol-1-yl)tetrahydro-2H-pyran-3-ol] | 0.2 | 4.49
11 | Cc1ccc(-c2cn([C@H]3[C@@H](O)[C@@H](CO)O[C@H](Cc4cc(C(C)(C)C)on4)[C@@H]3OCC(=O)O)nn2)c(F)c1F [Example 2.27, 2-(((2R,3R,4S,5R,6R)-2-((5-(tert-butyl)isoxazol-3-yl)methyl)-4-(4-(2,3-difluoro-4-methylphenyl)-1H-1,2,3-triazol-1-yl)-5-hydroxy-6-(hydroxymethyl)tetrahydro-2H-pyran-3-yl)oxy)acetic acid] | 0.024 | 5.28
12 | CC(C)(C)c1cc(C[C@H]2O[C@H](CO)[C@H](O)[C@H](n3cc(-c4cc(F)c(F)c(F)c4)nn3)[C@H]2OCC(=O)N2CCOCC2)no1 [Example 2.28, 2-(((2R,3R,4S,5R,6R)-2-((5-(tert-butyl)isoxazol-3-yl)methyl)-5-hydroxy-6-(hydroxymethyl)-4-(4-(3,4,5-trifluorophenyl)-1H-1,2,3-triazol-1-yl)tetrahydro-2H-pyran-3-yl)oxy)-1-morpholinoethan-1-one] | 0.11 | 2.18

Other lines, results leading:

Row | IC50 [1] [µM] | IC50 [2] [µM] | SMILES
13 | 2.54 | 13.7 | O=C(O)[C@H]1CC[C@](O)(c2cc(C[C@H]3O[C@H](CO)[C@H](O)[C@H](n4cc(-c5cc(F)c(F)c(F)c5)nn4)[C@H]3O)no2)CC1 [Example 2.11, (1S,4s)-4-(3-(((2R,3R,4R,5R,6R)-3,5-dihydroxy-6-(hydroxymethyl)-4-(4-(3,4,5-trifluorophenyl)-1H-1,2,3-triazol-1-yl)tetrahydro-2H-pyran-2-yl)methyl)isoxazol-5-yl)-4-hydroxycyclohexane-1-carboxylic acid]
14 | 0.19 | 3.65 | O=C1CCC(c2cc(C[C@H]3O[C@H](CO)[C@H](O)[C@H](n4cc(-c5cc(F)c(F)c(F)c5)nn4)[C@H]3O)no2)CC1 [Example 2.12, 4-(3-(((2R,3R,4R,5R,6R)-3,5-dihydroxy-6-(hydroxymethyl)-4-(4-(3,4,5-trifluorophenyl)-1H-1,2,3-triazol-1-yl)tetrahydro-2H-pyran-2-yl)methyl)isoxazol-5-yl)cyclohexan-1-one]
15 | 0.21 | 1.99 | OC[C@H]1O[C@H](Cc2cc(C3CCC(O)CC3)on2)[C@H](O)[C@@H](n2cc(-c3cc(F)c(F)c(F)c3)nn2)[C@H]1O (stereo partly drawn) [Example 2.13, (2R,3R,4R,5R,6R)-2-((5-(4-hydroxycyclohexyl)isoxazol-3-yl)methyl)-6-(hydroxymethyl)-4-(4-(3,4,5-trifluorophenyl)-1H-1,2,3-triazol-1-yl)tetrahydro-2H-pyran-3,5-diol]
16 | 0.19 | 4.58 | OC[C@H]1O[C@H](Cc2cc(C3CCC(O)CC3)on2)[C@H](O)[C@@H](n2cc(-c3cc(F)c(F)c(F)c3)nn2)[C@H]1O (stereo partly drawn) [Example 2.14, (2R,3R,4R,5R,6R)-2-((5-((1r,4r)-4-hydroxycyclohexyl)isoxazol-3-yl)methyl)-6-(hydroxymethyl)-4-(4-(3,4,5-trifluorophenyl)-1H-1,2,3-triazol-1-yl)tetrahydro-2H-pyran-3,5-diol]
17 | 0.16 | 11.6 | CCC(=O)O[C@@H]1[C@@H](n2cc(-c3cc(F)c(F)c(F)c3)nn2)[C@@H](O)[C@@H](CO)O[C@@H]1Cc1cc(C2CCNCC2)on1 [Example 2.16, (2R,3R,4S,5R,6R)-5-hydroxy-6-(hydroxymethyl)-2-((5-(piperidin-4-yl)isoxazol-3-yl)methyl)-4-(4-(3,4,5-trifluorophenyl)-1H-1,2,3-triazol-1-yl)tetrahydro-2H-pyran-3-yl propionate]
18 | 0.22 | 6.3 | CCC(=O)O[C@@H]1[C@@H](n2cc(-c3cc(F)c(F)c(F)c3)nn2)[C@@H](O)[C@@H](CO)O[C@@H]1Cc1cc(C2CCNCC2)on1 [Example 2.18, (2R,3R,4S,5R,6R)-5-hydroxy-6-(hydroxymethyl)-2-((5-(piperidin-4-yl)isoxazol-3-yl)methyl)-4-(4-(3,4,5-trifluorophenyl)-1H-1,2,3-triazol-1-yl)tetrahydro-2H-pyran-3-yl propionate]
19 | 0.99 | 9.61 | CC(C)O[C@@H]1[C@@H](n2cc(-c3cc(F)c(F)c(F)c3)nn2)[C@@H](O)[C@@H](CO)O[C@@H]1Cc1cc(C2CCNCC2)on1 [Example 2.24, (2R,3R,4S,5R,6R)-2-(hydroxymethyl)-5-isopropoxy-6-((5-(piperidin-4-yl)isoxazol-3-yl)methyl)-4-(4-(3,4,5-trifluorophenyl)-1H-1,2,3-triazol-1-yl)tetrahydro-2H-pyran-3-ol]
